Data taken from the CheMixHub viscosity set.
Several values for one entry are separate records, joined by “and”; a condition that tells them apart may be missing. Equal entries are not always repeated.

Test: xn = mol fraction of the nth substance listed

CCCCN + COCCO
308.15 K, 101 kPa
Settings	viscosity [mPa·s]
x2 = 0.1234	0.5285
x2 = 0.2404	0.6274
x2 = 0.3516	0.7219
x2 = 0.4576	0.8199
x2 = 0.5606	0.9142
x2 = 0.6503	0.9868
x2 = 0.7471	1.048
x2 = 0.8351	1.111
x2 = 0.9193	1.173

CN + CS(C)=O
303.15 K, 101 kPa
Settings	viscosity [mPa·s]
x2 = 0.0607	1.738
x2 = 0.12	1.823
x2 = 0.2348	1.891
x2 = 0.4501	2.172
x2 = 0.6481	2.077
x2 = 0.8308	1.895

O=C(O)C(Cl)(Cl)Cl + C[N+](C)(C)CCO.[Cl-]
101 kPa, x2 = 0.333
Settings	viscosity [mPa·s]
293.15 K	645.9
298.15 K	435
303.15 K	302.5
308.15 K	216.1
313.15 K	158.7
318.15 K	119.2
323.15 K	91.41

O=C(O)[C@H](O)[C@@H](O)C(=O)O + C[N+](C)(C)CCO.[Cl-]
viscosity [mPa·s]
Settings	303 K	313 K	313.2 K	323 K
101 kPa, x2 = 0.5	1281000	240000	–	73300
101.3 kPa, x2 = 0.669	–	–	6790	–

CC[N+](=O)[O-] + Cc1cc(C)cc(C)c1
293.15 K, 101.33 kPa
Settings	viscosity [mPa·s]
x1 = 0.0912	0.69
x1 = 0.1908	0.685
x1 = 0.2974	0.68
x1 = 0.3871	0.675
x1 = 0.5179	0.669
x1 = 0.6112	0.665
x1 = 0.6912	0.665
x1 = 0.7813	0.669
x1 = 0.8874	0.671

CCCCN + Cc1ccc(C)cc1
303.15 K, 101 kPa
Settings	viscosity [mPa·s]
x1 = 0.0795	0.545
x1 = 0.1507	0.53
x1 = 0.2545	0.511
x1 = 0.3628	0.494
x1 = 0.4612	0.481
x1 = 0.5562	0.471
x1 = 0.6469	0.464
x1 = 0.7338	0.457
x1 = 0.8144	0.451
x1 = 0.8979	0.448
x1 = 0.9456	0.444

CC[N+](=O)[O-] + Cc1ccc(C)cc1
293.15 K, 101.33 kPa
Settings	viscosity [mPa·s]
x1 = 0.0968	0.633
x1 = 0.1917	0.629
x1 = 0.3	0.627
x1 = 0.4039	0.626
x1 = 0.4933	0.626
x1 = 0.6083	0.629
x1 = 0.6994	0.633
x1 = 0.7938	0.644
x1 = 0.9011	0.66

CCCCN + Cc1cccc(C)c1
303.15 K, 101 kPa
Settings	viscosity [mPa·s]
x1 = 0.0824	0.525
x1 = 0.1495	0.516
x1 = 0.2739	0.497
x1 = 0.387	0.484
x1 = 0.4543	0.476
x1 = 0.5525	0.469
x1 = 0.6484	0.462
x1 = 0.7553	0.457
x1 = 0.816	0.453
x1 = 0.8978	0.448
x1 = 0.9469	0.445

CCCCN + Cc1ccccc1
303.15 K, 101 kPa
Settings	viscosity [mPa·s]
x1 = 0.0685	0.51
x1 = 0.1474	0.497
x1 = 0.2553	0.485
x1 = 0.328	0.474
x1 = 0.4247	0.464
x1 = 0.5197	0.457
x1 = 0.6107	0.453
x1 = 0.6993	0.449
x1 = 0.7946	0.446
x1 = 0.8819	0.445
x1 = 0.9407	0.444
x2 = 0.1475	0.4405
x2 = 0.2127	0.441
x2 = 0.2918	0.439
x2 = 0.3842	0.4402
x2 = 0.5074	0.4449
x2 = 0.6083	0.4543
x2 = 0.7064	0.4677
x2 = 0.8686	0.4956

CCCCN + Cc1ccccc1C
303.15 K, 101 kPa
Settings	viscosity [mPa·s]
x1 = 0.0811	0.648
x1 = 0.1509	0.624
x1 = 0.2681	0.587
x1 = 0.3574	0.56
x1 = 0.4598	0.535
x1 = 0.546	0.518
x1 = 0.6419	0.499
x1 = 0.7306	0.484
x1 = 0.8169	0.469
x1 = 0.8974	0.457
x1 = 0.9503	0.45

CCCCN + ClC(Cl)(Cl)Cl
viscosity [mPa·s], 101 kPa
Settings	293.15 K	298.15 K	303.15 K	308.15 K
x1 = 0.1017	0.924	0.86	0.806	0.76
x1 = 0.1975	0.879	0.818	0.766	0.723
x1 = 0.2974	0.832	0.774	0.726	0.684
x1 = 0.3676	0.799	0.743	0.697	0.657
x1 = 0.4895	0.742	0.69	0.647	0.61
x1 = 0.5536	0.712	0.661	0.621	0.585
x1 = 0.6318	0.675	0.627	0.589	0.555
x1 = 0.6708	0.657	0.61	0.573	0.54
x1 = 0.7779	0.606	0.563	0.53	0.499
x1 = 0.8299	0.582	0.54	0.508	0.479
x1 = 0.912	0.543	0.504	0.475	0.447

CC[N+](=O)[O-] + ClC(Cl)(Cl)Cl
viscosity [mPa·s], 101 kPa
Settings	x1 = 0.1	x1 = 0.2	x1 = 0.3	x1 = 0.4	x1 = 0.5	x1 = 0.6	x1 = 0.7	x1 = 0.8	x1 = 0.9
303.15 K	0.7767	0.7448	0.7173	0.6971	0.6667	0.6402	0.6152	0.5924	0.5824
308.15 K	0.7408	0.6988	0.6673	0.6509	0.6305	0.6024	0.5769	0.5634	0.5522
318.15 K	0.6485	0.6213	0.597	0.5764	0.5533	0.5327	0.514	0.4996	0.4945

CCCCN + ClC(Cl)Cl
viscosity [mPa·s], 101 kPa
Settings	293.15 K	298.15 K	303.15 K	308.15 K
x1 = 0.0601	0.59	0.555	0.529	0.516
x1 = 0.1276	0.603	0.567	0.535	0.525
x1 = 0.1585	0.61	0.571	–	0.529
x1 = 0.2301	0.623	0.583	0.554	0.535
x1 = 0.2658	0.631	0.587	0.558	0.538
x1 = 0.336	0.641	0.598	–	0.541
x1 = 0.4049	0.647	0.6	0.567	0.543
x1 = 0.4341	0.649	0.599	0.568	0.541
x1 = 0.4542	0.649	0.6	–	0.54
x1 = 0.4991	0.645	0.598	0.561	0.536
x1 = 0.6045	0.63	0.585	0.548	0.524
x1 = 0.6156	0.627	0.58	–	0.52
x1 = 0.6443	0.621	0.573	0.54	0.516
x1 = 0.7093	0.604	0.559	0.526	0.503
x1 = 0.7325	0.596	0.552	0.52	0.496
x1 = 0.8611	0.556	0.514	0.487	0.46
x1 = 0.9302	0.532	0.492	0.463	0.437

CCCC(=O)OCC + Clc1ccccc1
viscosity [mPa·s], 101.3 kPa
Settings	308.15 K	318.15 K
x1 = 0.0537	0.646	0.596
x1 = 0.0994	0.637	0.588
x1 = 0.1869	0.622	0.574
x1 = 0.357	0.599	0.552
x1 = 0.4049	0.593	0.548
x1 = 0.4939	0.585	0.541
x1 = 0.5929	0.579	0.535
x1 = 0.6953	0.574	0.532
x1 = 0.7941	0.573	0.532
x1 = 0.9017	0.573	0.534
x1 = 0.9369	0.574	0.535

CCCCN + NC1CCCCC1
298.15 K, 101 kPa
Settings	viscosity [mPa·s]
x2 = 0.0757	0.6805
x2 = 0.1557	0.8796
x2 = 0.2401	1.111
x2 = 0.3296	1.33
x2 = 0.4244	1.548
x2 = 0.5252	1.774
x2 = 0.6324	1.954
x2 = 0.7468	2.035
x2 = 0.8691	1.976

O=[N+]([O-])[O-].[Ag+] + Nc1cccc(Cl)c1
298.15 K, 101 kPa
Settings	viscosity [mPa·s]
x1 = 0.00059	3.52
x1 = 0.0014	3.57
x1 = 0.00381	3.67
x1 = 0.008857	3.92
x1 = 0.02337	4.83
x1 = 0.06044	9.18

NCCC(=O)O + O
viscosity [mPa·s], 100 kPa
Settings	x1 = 0.000358	x1 = 0.000542	x1 = 0.00072	x1 = 0.000808	x1 = 0.00108	x1 = 0.00126	x1 = 0.00144	x1 = 0.0018
293.15 K	1.006	1.008	1.009	1.011	1.014	1.016	1.018	1.022
298.15 K	0.894	0.894	0.896	0.898	0.901	0.902	0.905	0.908
303.15 K	0.8	0.8	0.802	0.804	0.805	0.807	0.809	0.812
308.15 K	0.721	0.721	0.723	0.725	0.725	0.728	0.729	0.732
313.15 K	0.653	0.653	0.655	0.657	0.657	0.659	0.66	0.663

O=C([O-])CC(O)(CC(=O)[O-])C(=O)[O-].[K+].[K+].[K+] + O
viscosity [mPa·s], 101 kPa
Settings	293.15 K	298.15 K	303.15 K	308.15 K
x1 = 0.0025	1.072	0.946	0.844	0.758
x1 = 0.0089	1.265	1.123	1.003	0.908
x1 = 0.0177	1.478	1.32	1.187	1.07

O=S(=O)([O-])[O-].[K+].[K+] + O
Settings	viscosity
293.65 K, 100 kPa, x1 = 0.008033	1.089 mPa·s
294.15 K, 100 kPa, x1 = 0.005375	1.042 mPa·s
294.15 K, 100 kPa, x1 = 0.01069	1.109 mPa·s and 1.108 mPa·s
298.15 K, 100 kPa, x1 = 5e-05	0.8905 mPa·s
298.15 K, 100 kPa, x1 = 0.0001	0.891 mPa·s
298.15 K, 100 kPa, x1 = 0.00021	0.892 mPa·s
298.15 K, 100 kPa, x1 = 0.00031	0.893 mPa·s
298.15 K, 100 kPa, x1 = 0.00104	0.9247 mPa·s
298.15 K, 101 kPa, x1 = 0.00655	0.966 mPa·s
298.15 K, 101 kPa, x1 = 0.01242	1.039 mPa·s
303.15 K, 101 kPa, x1 = 0.01242	0.9548 mPa·s
308.15 K, 100 kPa, x1 = 5e-05	0.7195 mPa·s
308.15 K, 100 kPa, x1 = 0.0001	0.72 mPa·s
308.15 K, 100 kPa, x1 = 0.00021	0.721 mPa·s
308.15 K, 100 kPa, x1 = 0.00031	0.722 mPa·s
308.15 K, 100 kPa, x1 = 0.00104	0.7509 mPa·s
308.15 K, 101 kPa, x1 = 0.01242	0.8705 mPa·s
313.15 K, 101 kPa, x1 = 0.01242	0.7905 mPa·s
318.15 K, 101 kPa, x1 = 0.01242	0.7249 mPa·s
323.15 K, 101 kPa, x1 = 0.00318	0.576 mPa·s
323.15 K, 101 kPa, x1 = 0.00655	0.603 mPa·s
323.15 K, 101 kPa, x1 = 0.0113	0.645 mPa·s
